# Measurements reported in US6921824B1, “Ruthenium dimeric complexes suitable as antimetastatic and antineoplastic agents” (priority 1999, dated 2005).
# Marks after values point to notes of the source that are not given here.
# Assays:
# [1] = LD0.05 determination, intraperitoneal treatment for 6 consecutive days (Lichtfield and Wilcoxon); type: in vivo; conditions: observation time 10 days since last dose
# Method: The dosages corresponding to the LD0.05, calculated separately in animals of the same strain and gender and having the same body weight, was administered intraperitoneally for 6 consecutive days, according to the method of Lichtfield and Wilcoxon, and with an observation time of 10 days since last dose.
# [2] = system: murine TS/A adenocarcinoma cells; test: In vitro cytotoxicity, SRB test (protein synthesis); type: cell-based
# Method: (§1) In vitro cytotoxicity of complexes of the present invention on murine TS/A adenocarcinoma cells.
# (§2) 4×10^3 murine TS/A adenocarcinoma cells resuspended in 200 μl RPMI-1640 medium supplemented with 10% FCS (fetal calf serum), 2 mM glutamine and 50 μg/ml gentamicin sulphate, were seeded in a 96-wells plate. After 24 hours incubation at 37° C., in 5% CO2, the complexes as described in example 4 (A), in example 7 (B), in example 8 (C) and in example 10 (D), each solubilised in RPMI-1640 medium supplemented with 5% FCS, 2 mM glutamine and 50 μg/ml gentamicin sulphate, were added to the cells, each at a final concentration of 10^−4, 10^−5 and 10^−6 M. Cell viability tests were performed after 24, 48 and 72 hours of exposure to the compounds by assessing both the effect on protein synthesis and on mitochondrial activity by means of colorimetric assays, respectively the solphorodamine B test (SRB) and the MTT analysis. Each value (optical density) is the average percentage ±S.E. versus the untreated controls.
# (§3) Values such as *p<0.05, **p<0.01 indicate average values statistically different from the controls. Analysis of Variance and Dunnet test were used in the comparison analysis.
# (§4) The results are reported in Table 3, wherein both the effect on protein synthesis (SRB) and the mitochondrial activity (MTT) are reported for each complexes tested at different dosages after different exposure time.
# MCa mammary carcinoma = test: Pre-surgical treatment: prevention of lung metastases formation in mice with MCa mammary carcinoma; type: in vivo; conditions: for Lung metastases Number % T/C / Lung metastases weight % T/C: Treated/Control; for Lung metastases Number mean / Lung metastases weight (mg) mean: evaluated day 29; for Body weight % var: variation day 11 to day 16 vs untreated controls; for Selectivity of action on lung metastases versus primary tumour: MCa mammary carcinoma model of the CBA mouse
# Method: In vivo tests of the activity of the compounds according to the present invention in mice affected from MCa mammary carcinoma: prevention activity in the formation of lung metastases.
# Five groups of CBA kin female mice weighing 23±3 g were inoculated with […] viable cells (as determined by the Trypan blue exclusion) of MCa mammary carcinoma in 0.05 ml Dulbecco's pH 7.4 buffered calcium and magnesium-free solution (PBS), by intramuscular injection with a sterile insulin syringe. The tumour cells were derived from donors of the same strain, injected with the same tumour cells, following the same procedures 2 weeks before. The suspension of tumour cells was prepared in PBS by mechanically mincing the tumour mass obtained from donor mice, and further removing tissue debris and cells by, respectively, filtration through a double layer of sterile gauze and centrifugation at 250× g for 10 minutes. Kin animals were obtained from a colony from Chester Beatthy from London (UK) which were grown in the University of Trieste animal house accordingly to the procedures accepted for the rearing of kin animals. The MCa mammary carcinoma tumour cell-line derived from a stock, stored in liquid nitrogen, of tumour cells obtained originally from Rudjer Boskovic Institute of Zagreb (HR).
# From day 11 to day 16, after tumour cells implantation, five mice groups were treated intraperitoneally with a sterile insulin syringe, respectively with: • Group 1 Control (10 animals): 10 ml/kg of body weight/day of sterile and pyrogen-free physiological solution; • Group 2 (two subgroups a,b of five animals each): 7.5 (a), 15 (b) mg/kg of body weight/day of the compound prepared as described in Example 4 in sterile and pyrogen-free physiological solution; • Group 3 (2 subgroups c,d of five animals each): 15 (c), 30 (d) mg/kg of body weight/day of the compound prepared as described in Example 7 in sterile and pyrogen-free physiological solution; • Group 4 (2 subgroups e,f of 5 animals each): 25 (e), 50 (f) mg/kg of body weight/day of the compound prepared as described in Example 8 in sterile and pyrogen-free physiological solution; • Group 5 (2 subgroups g,h of 5 animals each): 12.5 (g), 25 (h) mg/kg of body weight/day of the compound prepared as described in Example 10 in sterile and pyrogen-free physiological solution.
# The administered dosages were either approximated to LD0.1, or to half of it or to a quarter of it, as calculated separately in animals of the same strain and gender and with the same body weight, for an intraperitoneal treatment lasting 6 consecutive days, according to the method of Lichtfield and Wilcoxon, and with an observation time of 10 days since the last dose.
# On day 17 since tumour cells implantation, the primary tumour was surgically removed, after general anesthesia of the animals by intraperitoneal injection of 125 mg/kg of Ketamine.
# On day 29 since tumour cells implantation, the mice were sacrificed by cervical dislocation for the evaluation of lung metastases. The lungs were abducted from the animals immediately after sacrifice, divided in single lobes which then examined immediately with a low-magnification microscope equipped with a graduated ocular-grid for the measurement of the size of the metastases in which the a and b orthogonal axes (a≦b) were identified. Metastases were classified by size and the metastatic tumour weight for each animal was calculated as the sum of each single metastasis weight, each of them considered as a rotation solid developed around the above mentioned axes and calculated according to the formula (π/6)·a^2·b. The experimental data obtained were then processed by appropriate statistical tests. […]
# [3] = system: murine TS/A adenocarcinoma cells; test: In vitro cytotoxicity, MTT analysis (mitochondrial activity); type: cell-based
# Method: as §1, §2, §3, §4
# [4] = 12.5 mg/kg/die i.p. day 11-16, pre-surgical
# [5] = 25 mg/kg/die i.p. day 11-16, pre-surgical
# [6] = at two dose levels, pre-surgical treatment
# [7] = 50 mg/kg/die i.p. day 11-16, pre-surgical
Compound,LD0.05 [1],"SRB optical density, average percentage ±S.E. versus untreated controls ([2]; 10^−4 M, exposure time 24 h)","SRB optical density, average percentage ±S.E. versus untreated controls ([2]; 10^−4 M, exposure time 48 h)","SRB optical density, average percentage ±S.E. versus untreated controls ([2]; 10^−4 M, exposure time 72 h)","SRB optical density, average percentage ±S.E. versus untreated controls ([2]; 10^−5 M, exposure time 24 h) [%]","SRB optical density, average percentage ±S.E. versus untreated controls ([2]; 10^−5 M, exposure time 48 h) [%]","SRB optical density, average percentage ±S.E. versus untreated controls ([2]; 10^−5 M, exposure time 72 h) [%]","SRB optical density, average percentage ±S.E. versus untreated controls ([2]; 10^−6 M, exposure time 24 h) [%]","SRB optical density, average percentage ±S.E. versus untreated controls ([2]; 10^−6 M, exposure time 48 h) [%]","SRB optical density, average percentage ±S.E. versus untreated controls ([2]; 10^−6 M, exposure time 72 h) [%]",Lung metastases Number % T/C (MCa mammary carcinoma; [5]) [%],Lung metastases weight % T/C (MCa mammary carcinoma; [5]) [%],Lung metastases Number mean (MCa mammary carcinoma; [5]),Lung metastases weight (mg) mean (MCa mammary carcinoma; [5]) [mg],Body weight % var (MCa mammary carcinoma; 25 mg/kg/die i.p. day 11-16) [%],Selectivity of action on lung metastases versus primary tumour (MCa mammary carcinoma),"MTT optical density, average percentage ±S.E. versus untreated controls ([3]; 10^−4 M, exposure time 24 h)","MTT optical density, average percentage ±S.E. versus untreated controls ([3]; 10^−4 M, exposure time 48 h)","MTT optical density, average percentage ±S.E. versus untreated controls ([3]; 10^−4 M, exposure time 72 h)","MTT optical density, average percentage ±S.E. versus untreated controls ([3]; 10^−5 M, exposure time 24 h) [%]",also measured
"C[SH](C)(=O)[Ru-]([Cl])([Cl])([Cl])([Cl])[n+]1ccc(CCc2cc[n+]([Ru-]([Cl])([Cl])([Cl])([Cl])[SH](C)(C)=O)cc2)cc1.[Na+].[Na+] [Example 10, [Na]2[trans-RuCl4(Me2SO)]2(μ-etbipy)]",52 mg/kg of body weight/day,47 ± 2** %,62 ± 14** %,73 ± 2** %,81 ± 8,94 ± 3,95 ± 1,102 ± 9,81 ± 5,93 ± 5,25,1,13.0,1.2,−1.1,act selectively on lung metastases,76 ± 9%,65 ± 4** %,76 ± 4** %,97 ± 12,"Lung metastases Number % T/C (MCa mammary carcinoma; [4]): 15%; Lung metastases weight % T/C (MCa mammary carcinoma; [4]): 6%; Lung metastases Number mean (MCa mammary carcinoma; [4]): 8.0; Lung metastases weight (mg) mean (MCa mammary carcinoma; [4]): 4.6 mg; Body weight % var (MCa mammary carcinoma; 12.5 mg/kg/die i.p. day 11-16): −2.8%; Number of lung metastases (in words) (MCa mammary carcinoma; [6]): marked reduction; Weight of lung metastases (in words) (MCa mammary carcinoma; [6]): even more marked reduction; MTT optical density, average percentage ±S.E. versus untreated controls ([3]; 10^−5 M, exposure time 48 h): 93 ± 2%; MTT optical density, average percentage ±S.E. versus untreated controls ([3]; 10^−5 M, exposure time 72 h): 84 ± 5%; MTT optical density, average percentage ±S.E. versus untreated controls ([3]; 10^−6 M, exposure time 24 h): 114 ± 7%; MTT optical density, average percentage ±S.E. versus untreated controls ([3]; 10^−6 M, exposure time 48 h): 109 ± 4%; MTT optical density, average percentage ±S.E. versus untreated controls ([3]; 10^−6 M, exposure time 72 h): 88 ± 4%"
[Na]2[trans-RuCl4(Me2SO)]2(μ-bipy) [Example 8],51 mg/kg of body weight/day,16 ± 1** %,49 ± 6** %,78 ± 5** %,102 ± 9,86 ± 9,88 ± 7,77 ± 6,92 ± 8,95 ± 2,213,144,111,119,−3.4,act selectively on lung metastases,33 ± 5** %,52 ± 9** %,68 ± 4** %,129 ± 9,"Antiproliferative activity (in words) ([2]; SRB and MTT, up to 72 h): scarce and reversible; Lung metastases Number % T/C (MCa mammary carcinoma; [7]): 15%; Lung metastases weight % T/C (MCa mammary carcinoma; [7]): 4%; Lung metastases Number mean (MCa mammary carcinoma; [7]): 8.0; Lung metastases weight (mg) mean (MCa mammary carcinoma; [7]): 3.1 mg; Body weight % var (MCa mammary carcinoma; 50 mg/kg/die i.p. day 11-16): −1.7%; MTT optical density, average percentage ±S.E. versus untreated controls ([3]; 10^−5 M, exposure time 48 h): 91 ± 3%; MTT optical density, average percentage ±S.E. versus untreated controls ([3]; 10^−5 M, exposure time 72 h): 90 ± 2%; MTT optical density, average percentage ±S.E. versus untreated controls ([3]; 10^−6 M, exposure time 24 h): 91 ± 7%; MTT optical density, average percentage ±S.E. versus untreated controls ([3]; 10^−6 M, exposure time 48 h): 103 ± 9%; MTT optical density, average percentage ±S.E. versus untreated controls ([3]; 10^−6 M, exposure time 72 h): 93 ± 5%"
